# Data published in publication PMC12827894, “Structure-guided design of picomolar-level macrocyclic TRPC5 channel inhibitors with antidepressant activity” (Acta Pharmaceutica Sinica. B, 2025).
# Where two headings read alike, the source gives them in different places.
# Assays:
# TRPC5 [1] = target: T1, TRPC5 (Homo sapiens, UniProt Q9UL62); type: cell-based; conditions: 100 nmol/L EA; read-out: IC50, TRPC5, whole-cell patch-clamp
# T1 sequence (Q9UL62 1-973): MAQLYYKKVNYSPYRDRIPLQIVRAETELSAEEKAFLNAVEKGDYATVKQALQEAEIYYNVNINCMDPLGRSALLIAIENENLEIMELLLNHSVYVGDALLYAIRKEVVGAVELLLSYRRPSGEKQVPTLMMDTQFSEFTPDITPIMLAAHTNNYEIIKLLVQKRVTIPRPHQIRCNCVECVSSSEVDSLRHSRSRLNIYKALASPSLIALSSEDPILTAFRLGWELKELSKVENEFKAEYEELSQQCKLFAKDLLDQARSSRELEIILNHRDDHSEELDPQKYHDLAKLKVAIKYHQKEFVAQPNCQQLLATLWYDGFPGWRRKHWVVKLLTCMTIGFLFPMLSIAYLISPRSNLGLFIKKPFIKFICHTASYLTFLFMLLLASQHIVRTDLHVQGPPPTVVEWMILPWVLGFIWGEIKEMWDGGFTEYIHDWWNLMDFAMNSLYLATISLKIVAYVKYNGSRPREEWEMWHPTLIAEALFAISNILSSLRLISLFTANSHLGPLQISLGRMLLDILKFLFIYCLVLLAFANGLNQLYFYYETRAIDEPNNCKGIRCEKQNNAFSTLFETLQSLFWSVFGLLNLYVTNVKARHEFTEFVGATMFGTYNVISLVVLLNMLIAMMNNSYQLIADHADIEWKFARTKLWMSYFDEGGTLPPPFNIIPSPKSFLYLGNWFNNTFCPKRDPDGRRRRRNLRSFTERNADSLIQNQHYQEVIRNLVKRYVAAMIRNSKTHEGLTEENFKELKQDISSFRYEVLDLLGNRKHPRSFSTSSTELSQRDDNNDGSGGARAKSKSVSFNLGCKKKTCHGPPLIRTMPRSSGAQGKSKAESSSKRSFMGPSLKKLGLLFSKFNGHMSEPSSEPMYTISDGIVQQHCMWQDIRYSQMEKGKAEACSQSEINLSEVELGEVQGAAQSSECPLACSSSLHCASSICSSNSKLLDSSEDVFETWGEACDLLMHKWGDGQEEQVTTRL
# TRPC3 = TRPC3 (Homo sapiens, UniProt Q13507); test: Patch-clamp selectivity, TRPC3; type: cell-based; conditions: 1 μmol/L
# DAT = target: T2, DAT (Homo sapiens, UniProt Q01959); test: SafetyOne44 panel: DAT; type: cell-based; conditions: 10 μmol/L, read-out: Antagonist JDIC-127 @10 μmol/L
# T2 construct: purchased ICE Bioscience ICESTP™ SafetyOne44 Panel
# TRPC5 [2] = target: T1, TRPC5; test: Whole-cell patch-clamp, TRPC5, Ca2+-activated condition; type: cell-based; conditions: read-out: IC50, TRPC5, endogenous Ca2+-evoked activation
# V1a = V1a (Homo sapiens, UniProt P37288); test: cell-based; conditions: read-out: Antagonist JDIC-127 @10 μmol/L
# M3 = target: T3, M3 (Homo sapiens, UniProt P20309); test: cell-based; type: cell-based
# T3 construct: purchased ICE Bioscience ICESTP SafetyOne44 Panel
# in vitro = in vitro ADME; conditions: not told
# Text: Table 1 Pharmacokinetic properties of JDIC-127. | column: ER; Papp (cm/s)
# in vivo = conditions: male, C57BL/6, mouse; for Vd: C57BL/6, 2 mpk
# M1 = target: T4, M1 (Homo sapiens, UniProt P11229); test: cell-based; type: cell-based
# T4 construct: purchased ICE Bioscience ICESTP SafetyOne44 Panel
# hERG = hERG (Homo sapiens, UniProt Q12809); type: cell-based; design: purchased ICE Bioscience ICESTP SafetyOne44 Panel
# IKs = target: T5, IKs (Homo sapiens, UniProt P51787); test: SafetyOne44 panel ion channels: IKs; type: cell-based; conditions: 5 μmol/L
# T5 construct: ICE Bioscience ICESTP SafetyOne44 Panel
# ACHE = target: T6, ACHE (Homo sapiens, UniProt P22303); test: biochemical; conditions: 10 μmol/L, read-out: Antagonist JDIC-127 @10 μmol/L
# T6 construct: purchased ICE Bioscience ICESTP™ SafetyOne44 Panel
# GR = target: T7, GR (Homo sapiens, UniProt P04150); test: SafetyOne44 panel: GR; type: cell-based
# T7 construct: purchased ICE Bioscience ICESTP™ SafetyOne44 Panel
# T7 sequence (P04150 whole entry): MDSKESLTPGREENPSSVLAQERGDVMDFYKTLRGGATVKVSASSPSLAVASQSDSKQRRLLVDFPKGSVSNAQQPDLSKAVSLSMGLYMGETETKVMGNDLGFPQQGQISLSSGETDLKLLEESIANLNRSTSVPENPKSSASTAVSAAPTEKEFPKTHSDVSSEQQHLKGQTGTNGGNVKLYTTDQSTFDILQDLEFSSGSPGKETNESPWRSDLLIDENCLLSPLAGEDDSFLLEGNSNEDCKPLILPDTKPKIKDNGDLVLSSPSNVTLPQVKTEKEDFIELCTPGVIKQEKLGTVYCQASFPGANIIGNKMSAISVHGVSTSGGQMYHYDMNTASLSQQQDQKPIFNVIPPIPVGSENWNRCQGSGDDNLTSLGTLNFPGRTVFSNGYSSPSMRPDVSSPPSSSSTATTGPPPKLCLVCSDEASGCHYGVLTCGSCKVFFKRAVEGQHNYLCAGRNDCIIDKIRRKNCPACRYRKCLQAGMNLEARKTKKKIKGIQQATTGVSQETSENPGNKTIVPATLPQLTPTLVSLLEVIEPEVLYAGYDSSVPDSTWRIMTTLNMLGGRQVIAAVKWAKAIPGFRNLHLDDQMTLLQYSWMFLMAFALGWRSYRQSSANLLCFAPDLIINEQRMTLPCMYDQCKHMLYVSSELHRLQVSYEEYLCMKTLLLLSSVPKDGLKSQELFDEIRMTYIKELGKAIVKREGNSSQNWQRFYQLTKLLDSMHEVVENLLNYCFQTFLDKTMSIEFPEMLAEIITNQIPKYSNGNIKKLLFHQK
# T4 sequence (P11229 whole entry): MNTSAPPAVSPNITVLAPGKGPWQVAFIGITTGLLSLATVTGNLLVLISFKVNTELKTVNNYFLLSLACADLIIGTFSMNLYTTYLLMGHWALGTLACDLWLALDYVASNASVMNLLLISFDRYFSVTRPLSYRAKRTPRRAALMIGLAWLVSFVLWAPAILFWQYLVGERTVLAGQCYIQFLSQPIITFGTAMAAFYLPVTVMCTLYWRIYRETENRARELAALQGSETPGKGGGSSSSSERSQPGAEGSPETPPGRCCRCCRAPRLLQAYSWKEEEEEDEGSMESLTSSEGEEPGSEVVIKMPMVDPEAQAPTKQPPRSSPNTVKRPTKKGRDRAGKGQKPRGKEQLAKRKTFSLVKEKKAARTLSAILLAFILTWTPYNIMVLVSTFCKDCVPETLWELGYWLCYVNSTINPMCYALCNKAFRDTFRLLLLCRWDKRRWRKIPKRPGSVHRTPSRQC
# T3 sequence (P20309 whole entry): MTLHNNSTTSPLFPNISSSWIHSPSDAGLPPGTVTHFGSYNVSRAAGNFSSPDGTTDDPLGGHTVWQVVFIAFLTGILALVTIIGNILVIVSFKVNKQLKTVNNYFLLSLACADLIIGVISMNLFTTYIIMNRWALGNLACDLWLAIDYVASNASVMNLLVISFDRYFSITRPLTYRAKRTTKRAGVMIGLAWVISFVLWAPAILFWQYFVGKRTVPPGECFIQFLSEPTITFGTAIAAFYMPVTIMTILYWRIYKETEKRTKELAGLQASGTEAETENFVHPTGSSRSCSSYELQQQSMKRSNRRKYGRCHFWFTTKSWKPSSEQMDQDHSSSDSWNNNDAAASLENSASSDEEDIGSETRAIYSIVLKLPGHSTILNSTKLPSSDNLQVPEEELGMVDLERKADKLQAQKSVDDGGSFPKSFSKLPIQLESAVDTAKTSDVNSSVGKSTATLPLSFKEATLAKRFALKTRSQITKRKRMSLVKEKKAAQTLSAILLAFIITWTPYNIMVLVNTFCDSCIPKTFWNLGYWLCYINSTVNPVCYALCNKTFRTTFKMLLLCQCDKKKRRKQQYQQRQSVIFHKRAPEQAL
# Chain of TRPC3 (Q13507 whole entry, species assumed): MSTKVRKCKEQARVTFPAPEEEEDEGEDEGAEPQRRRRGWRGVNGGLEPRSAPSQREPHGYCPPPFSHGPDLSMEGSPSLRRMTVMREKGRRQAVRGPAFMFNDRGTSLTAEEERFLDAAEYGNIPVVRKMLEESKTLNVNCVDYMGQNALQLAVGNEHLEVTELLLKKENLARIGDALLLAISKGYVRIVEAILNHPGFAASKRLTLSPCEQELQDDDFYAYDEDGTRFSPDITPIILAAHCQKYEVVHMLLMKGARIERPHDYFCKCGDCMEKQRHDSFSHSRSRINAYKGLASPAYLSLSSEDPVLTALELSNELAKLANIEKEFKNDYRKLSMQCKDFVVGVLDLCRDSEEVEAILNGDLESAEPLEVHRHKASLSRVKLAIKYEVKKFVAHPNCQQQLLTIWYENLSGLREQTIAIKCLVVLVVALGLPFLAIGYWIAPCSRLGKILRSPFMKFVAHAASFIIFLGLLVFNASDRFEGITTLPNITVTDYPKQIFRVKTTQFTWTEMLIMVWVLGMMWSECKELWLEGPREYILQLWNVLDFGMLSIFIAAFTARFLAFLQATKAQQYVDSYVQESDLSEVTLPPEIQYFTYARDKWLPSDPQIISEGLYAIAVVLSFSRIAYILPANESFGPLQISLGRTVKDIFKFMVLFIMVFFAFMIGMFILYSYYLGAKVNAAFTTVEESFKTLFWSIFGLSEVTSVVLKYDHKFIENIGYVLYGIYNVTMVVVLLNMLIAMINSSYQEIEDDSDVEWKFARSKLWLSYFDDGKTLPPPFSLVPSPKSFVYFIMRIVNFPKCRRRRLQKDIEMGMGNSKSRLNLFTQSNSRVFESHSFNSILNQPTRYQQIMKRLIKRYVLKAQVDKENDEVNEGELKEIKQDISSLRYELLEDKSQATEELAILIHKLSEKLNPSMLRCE
# Chain of V1a (P37288 whole entry): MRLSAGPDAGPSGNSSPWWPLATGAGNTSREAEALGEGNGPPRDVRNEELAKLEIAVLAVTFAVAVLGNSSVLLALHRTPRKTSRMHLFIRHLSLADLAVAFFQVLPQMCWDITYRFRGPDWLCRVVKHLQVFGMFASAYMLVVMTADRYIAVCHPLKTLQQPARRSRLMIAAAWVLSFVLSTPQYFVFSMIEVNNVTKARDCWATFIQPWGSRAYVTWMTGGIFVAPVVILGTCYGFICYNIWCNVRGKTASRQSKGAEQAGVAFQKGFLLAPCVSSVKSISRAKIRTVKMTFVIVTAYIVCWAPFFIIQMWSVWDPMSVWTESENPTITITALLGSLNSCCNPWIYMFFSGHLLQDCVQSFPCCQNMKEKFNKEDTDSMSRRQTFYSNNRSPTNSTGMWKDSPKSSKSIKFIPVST
# T5 sequence (P51787 whole entry): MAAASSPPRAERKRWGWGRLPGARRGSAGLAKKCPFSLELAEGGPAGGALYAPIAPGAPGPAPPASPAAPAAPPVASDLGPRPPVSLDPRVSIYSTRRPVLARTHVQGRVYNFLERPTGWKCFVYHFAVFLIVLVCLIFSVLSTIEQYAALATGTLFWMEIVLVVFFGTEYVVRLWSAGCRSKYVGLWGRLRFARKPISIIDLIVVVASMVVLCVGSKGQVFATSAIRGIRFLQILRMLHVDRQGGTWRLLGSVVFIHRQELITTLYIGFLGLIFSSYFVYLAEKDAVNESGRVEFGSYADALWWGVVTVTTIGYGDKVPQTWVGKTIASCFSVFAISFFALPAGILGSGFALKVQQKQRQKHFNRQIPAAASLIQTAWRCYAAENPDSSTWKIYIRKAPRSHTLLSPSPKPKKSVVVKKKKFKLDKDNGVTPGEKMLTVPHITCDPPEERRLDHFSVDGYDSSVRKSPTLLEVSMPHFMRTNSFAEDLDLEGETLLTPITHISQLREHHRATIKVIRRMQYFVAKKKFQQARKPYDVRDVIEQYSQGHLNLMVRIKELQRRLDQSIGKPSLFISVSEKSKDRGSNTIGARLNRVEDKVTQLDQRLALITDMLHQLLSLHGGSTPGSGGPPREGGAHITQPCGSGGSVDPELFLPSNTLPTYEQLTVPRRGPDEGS
# T6 sequence (P22303 32-614): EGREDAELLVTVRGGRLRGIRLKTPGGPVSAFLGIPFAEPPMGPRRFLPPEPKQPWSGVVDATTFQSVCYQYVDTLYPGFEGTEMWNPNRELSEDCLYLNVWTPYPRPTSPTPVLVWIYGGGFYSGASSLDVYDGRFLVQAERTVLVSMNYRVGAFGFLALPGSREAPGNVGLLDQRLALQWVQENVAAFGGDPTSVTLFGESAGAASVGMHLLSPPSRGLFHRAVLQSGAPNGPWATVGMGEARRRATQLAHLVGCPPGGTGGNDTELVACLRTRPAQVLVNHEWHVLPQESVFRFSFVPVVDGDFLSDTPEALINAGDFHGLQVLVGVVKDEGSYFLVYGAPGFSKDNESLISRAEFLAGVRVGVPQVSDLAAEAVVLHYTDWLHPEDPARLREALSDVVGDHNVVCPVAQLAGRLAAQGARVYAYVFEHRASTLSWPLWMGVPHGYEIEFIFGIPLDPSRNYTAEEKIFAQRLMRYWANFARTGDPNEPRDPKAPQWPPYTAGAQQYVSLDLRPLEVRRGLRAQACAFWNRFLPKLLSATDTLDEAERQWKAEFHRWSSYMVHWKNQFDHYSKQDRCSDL
compound,measurement,setting,value
O=c1c2c3nc(n2Cc2ccc(Cl)cc2)Oc2ccc(F)c(c2)OCCCCCCn3c(=O)n1CCCO [JDIC-127],IC50,TRPC5 [1],0.374 nM
same,inhibition at 1 µM,TRPC3,< 20%
same,inhibition at 10 µM,DAT,-57.6%
same,IC50,TRPC5 [2],0.0014 nM
same,inhibition at 10 µM,V1a,-0.83%
same,Agonist JDIC-127 @10 μmol/L,"M3; M3, agonist mode",0.99%
same,inhibition at 10 µM,"M3; M3, antagonist mode, 10 μmol/L, read-out: Antagonist JDIC-127 @10 μmol/L",-1.46%
same,ER,in vitro,1.45
same,Papp,in vitro,1.51 ×10⁻⁶ cm/s
same,bioavailability,in vivo,7.5%
same,C0,"in vivo; iv, 2 mg/kg",1450 ng/mL
same,MRT,"in vivo; iv, 2 mg/kg",52.8 min
same,clearance,"in vivo; iv, 2 mg/kg",66.8 mL/min/kg
same,half-life,"in vivo; iv, 2 mg/kg",59.4 min
same,Vd,"in vivo; iv, 2 mg/kg, VSS, i.v.",3.51 L/kg
same,Vd,"in vivo; iv, 2 mg/kg, Vd",5.71 L/kg
same,Cmax,"in vivo; po, 10 mg/kg",177 ng/mL
same,MRT,"in vivo; po, 10 mg/kg",114 min
same,Tmax,"in vivo; po, 10 mg/kg",15 min
same,half-life,"in vivo; po, 10 mg/kg",84 min
same,Agonist JDIC-127 @10 μmol/L,"M1; M1, agonist mode",–0.83%
same,inhibition at 10 µM,"M1; M1, antagonist mode, 10 μmol/L, read-out: Antagonist JDIC-127 @10 μmol/L",0.22%
same,Antagonist JDIC-127 @5 μmol/L,hERG,19.40%
same,Antagonist JDIC-127 @5 μmol/L,IKs,22.77%
same,inhibition at 10 µM,ACHE,0.88%
same,Agonist JDIC-127 @10 μmol/L,GR; agonist mode,0.05%
same,inhibition at 10 µM,"GR; antagonist mode, 10 μmol/L, read-out: Antagonist JDIC-127 @10 μmol/L",4.73%
